Test results published in patent publication US20230226074A1, “METHODS OF USE FOR PYRIMIDINES AS FERROPORTIN INHIBITORS” (Global Blood Therapeutics, Inc., priority 2020, published 2023).

Target: T1, human ferroportin (Homo sapiens, UniProt Q9NP59)
T1 construct: luciferase reporter (probably NanoLuc, inferred from the Nano-Glo Luciferase Assay System read-out); expressed in transfected cells; host or cells: CHO cells, stably transfected, expression induced with doxycycline
T1 sequence (Q9NP59 1-571): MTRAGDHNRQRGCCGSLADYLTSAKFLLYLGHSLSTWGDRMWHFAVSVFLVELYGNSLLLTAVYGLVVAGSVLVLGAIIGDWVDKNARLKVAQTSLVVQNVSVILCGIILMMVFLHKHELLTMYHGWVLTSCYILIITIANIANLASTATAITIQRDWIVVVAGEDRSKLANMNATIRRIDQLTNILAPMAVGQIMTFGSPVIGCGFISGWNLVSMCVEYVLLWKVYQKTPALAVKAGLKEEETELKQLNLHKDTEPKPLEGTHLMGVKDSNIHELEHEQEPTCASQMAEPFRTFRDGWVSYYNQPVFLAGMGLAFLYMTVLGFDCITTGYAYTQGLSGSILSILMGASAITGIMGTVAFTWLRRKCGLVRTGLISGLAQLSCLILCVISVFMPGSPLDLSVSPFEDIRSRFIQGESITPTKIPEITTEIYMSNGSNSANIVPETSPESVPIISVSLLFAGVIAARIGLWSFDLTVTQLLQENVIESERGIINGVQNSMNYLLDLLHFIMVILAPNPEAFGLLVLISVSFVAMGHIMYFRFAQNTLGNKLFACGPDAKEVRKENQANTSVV
Assay: In-vitro ferroportin internalization assay (luciferase reporter)
Format: cell-based
Settings: average pEC50; stably-transfected CHO cell line expressing human ferroportin tagged to a luciferase reporter; 6 h incubation with test compound
Procedure: The protocol for this assay is generally as described in WO2018/128828, incorporated herein by reference in its entirety. Functional internalization of ferroportin protein was measured using a stably-transfected CHO cell line expressing the human ferroportin tagged to a luciferase reporter. Cells were plated for 24 h in the presence of ferric ammonium citrate (FAC). Ferroportin protein expression was induced with doxycycline for 24 h. The next day, the compounds were added. Test compounds were dissolved in DMSO. Cells were incubated with the test compounds for 6 h, and subsequently luciferase activity was measured using the Nano-Glo Luciferase Assay System and Glomax (Promega, Madison, Wis.). The average pEC50 was determined for the test compounds.

SMILES	pEC50
c1ccc(-c2csc3nc(-c4ccccn4)nc(N4CCC4)c23)cc1 [Compound 204, 2-[4-(azetidin-1-yl)-5-phenylthieno[2,3-d]pyrimidin-2-yl]pyridine]	5.6
c1ccc(-c2csc3nc(-c4ccccn4)nc(N4CCCC4)c23)cc1 [Compound 205, 2-[5-phenyl-4-(pyrrolidin-1-yl)thieno[2,3-d]pyrimidin-2-yl]pyridine]	5.9
c1ccc(-c2csc3nc(-c4ccccn4)nc(N4CCN(c5ccccc5)CC4)c23)cc1 [Compound 206, 1-phenyl-4-[5-phenyl-2-(pyridin-2-yl)thieno[2,3-d]pyrimidin-4-yl]piperazine]	5.7
c1ccc(-c2csc3nc(-c4ccccn4)nc(N4CCN(c5ccccn5)CC4)c23)cc1 [Compound 207, 1-[5-phenyl-2-(pyridin-2-yl)thieno[2,3-d]pyrimidin-4-yl]-4-(pyridin-2-yl)piperazine]	6
c1ccc(-c2csc3nc(-c4ccccn4)nc(N4CCOCC4)c23)cc1 [Compound 208, 4-[5-phenyl-2-(pyridin-2-yl)thieno[2,3-d]pyrimidin-4-yl]morpholine]	5.9
COCC(C)Nc1nc(-c2ccccn2)nc2sc(C)c(-c3ccccc3)c12 (stereo not drawn) [Compound 209, N-(1-methoxypropan-2-yl)-6-methyl-5-phenyl-2-(pyridin-2-yl)thieno[2,3-d]pyrimidin-4-amine]	6
COCCN(CCOC)c1nc(-c2ccccn2)nc2sc(-c3ccccc3)cc12 [Compound 210, N,N-bis(2-methoxyethyl)-6-phenyl-2-(pyridin-2-yl)thieno[2,3-d]pyrimidin-4-amine]	6.4
COCCN(CCOC)c1nc(-c2ccccn2)nc2scc(-c3ccccc3)c12 [Compound 211, N,N-bis(2-methoxyethyl)-5-phenyl-2-(pyridin-2-yl)thieno[2,3-d]pyrimidin-4-amine]	6.7
CC(=O)N1CCN(c2nc(-c3ccccn3)nc3scc(-c4ccccc4)c23)CC1 [Compound 214, 1-{4-[5-phenyl-2-(pyridin-2-yl)thieno[2,3-d]pyrimidin-4-yl]piperazin-1-yl}ethan-1-one]	5.8
CNC(=O)CCN(C)c1nc(-c2ccccn2)nc2scc(-c3ccccc3)c12 [Compound 216, N-methyl-3-{methyl[5-phenyl-2-(pyridin-2-yl)thieno[2,3-d]pyrimidin-4-yl]amino}propanamide]	5.7
O=C1CCN(c2nc(-c3ccccn3)nc3scc(-c4ccccc4)c23)CC1 [Compound 221, 1-[5-phenyl-2-(pyridin-2-yl)thieno[2,3-d]pyrimidin-4-yl]piperidin-4-one]	6
OC1CCN(c2nc(-c3ccccn3)nc3scc(-c4ccccc4)c23)CC1 [Compound 222, 1-[5-phenyl-2-(pyridin-2-yl)thieno[2,3-d]pyrimidin-4-yl]piperidin-4-ol]	6
CN(CCO)c1nc(-c2ccccn2)nc2sc(-c3ccccc3)cc12 [Compound 223, 2-{methyl[6-phenyl-2-(pyridin-2-yl)thieno[2,3-d]pyrimidin-4-yl]amino}ethan-1-ol]	5.6
OCCN1CCN(c2nc(-c3ccccn3)nc3scc(-c4ccccc4)c23)CC1 [Compound 224, 2-{4-[5-phenyl-2-(pyridin-2-yl)thieno[2,3-d]pyrimidin-4-yl]piperazin-1-yl}ethan-1-ol]	5.3
O=C1C(Nc2cc(C(F)(F)F)nc(-c3ccccn3)n2)CN1c1ccc(F)cc1 (stereo not drawn) [Compound 227, 1-(4-fluorophenyl)-3-{[2-(pyridin-2-yl)-6-(trifluoromethyl)pyrimidin-4-yl]amino}azetidin-2-one]	4.8
O=C1C(Nc2cc(C(F)(F)F)nc(-c3ccccn3)n2)CCN1c1ccccc1 (stereo not drawn) [Compound 228, 1-phenyl-3-{[2-(pyridin-2-yl)-6-(trifluoromethyl)pyrimidin-4-yl]amino}pyrrolidin-2-one]	5.7
Cc1cc(NCCCn2ccnc2)nc(-c2ccccn2)n1 [Compound 229, N-[3-(1H-imidazol-1-yl)propyl]-6-methyl-2-(pyridin-2-yl)pyrimidin-4-amine]	<5.0
CCc1cc(NCCN2CCN(CC)CC2)nc(-c2ccccn2)n1 [Compound 230, 6-ethyl-N-[2-(4-ethylpiperazin-1-yl)ethyl]-2-(pyridin-2-yl)pyrimidin-4-amine]	5.3
Cc1cc(NCCc2cccnc2)nc(-c2ccccn2)n1 [Compound 231, 6-methyl-2-(pyridin-2-yl)-N-[2-(pyridin-3-yl)ethyl]pyrimidin-4-amine]	5.4
Cc1cc(NCCC(=O)N2CCCCCC2)nc(-c2ccccn2)n1 [Compound 232, 1-(azepan-1-yl)-3-{[6-methyl-2-(pyridin-2-yl)pyrimidin-4-yl]amino}propan-1-one]	5.5
Cc1cc(NCCNC(=O)Cc2ccccc2)nc(-c2ccccn2)n1 [Compound 233, N-(2-{[6-methyl-2-(pyridin-2-yl)pyrimidin-4-yl]amino}ethyl)-2-phenylacetamide]	5.2
CCc1cc(NCCNC(=O)NC2CCCCC2)nc(-c2ccccn2)n1 [Compound 234, 1-cyclohexyl-3-(2-{[6-ethyl-2-(pyridin-2-yl)pyrimidin-4-yl]amino}ethyl)urea]	5.4
Cc1cc(NCCC(=O)NCc2ccncc2)nc(-c2ccccn2)n1 [Compound 235, 3-{[6-methyl-2-(pyridin-2-yl)pyrimidin-4-yl]amino}-N-[(pyridin-4-yl)methyl]propanamide]	5.3
CCc1cc(NC2CN(c3ccccc3)C2=O)nc(-c2ccccn2)n1 (stereo not drawn) [Compound 236, 3-{[6-ethyl-2-(pyridin-2-yl)pyrimidin-4-yl]amino}-1-phenylazetidin-2-one]	5.4
Cc1cc(NC[C@@H](O)CN2CCCCC2)nc(-c2ccccn2)n1 [Compound 237, (2R)-1-{[6-methyl-2-(pyridin-2-yl)pyrimidin-4-yl]amino}-3-(piperidine-1-yl)propan-2-ol]	5.4

Next, values leading:

pEC50	SMILES
5.7	CCN(CC)CCCNc1nc(-c2ccccn2)nc2scc(-c3ccccc3)c12 [Compound 202, N-[3-(diethylamino)propyl]-5-phenyl-2-(pyridin-2-yl)thieno[2,3-d]pyrimidin-4-amine]
5.7	c1ccc(-c2csc3nc(-c4ccccn4)nc(NC4CC4)c23)cc1 [Compound 203, N-cyclopropyl-5-phenyl-2-(pyridin-2-yl)thieno[2,3-d]pyrimidin-4-amine]
5.9	COCCNc1nc(-c2ccccn2)nc2scc(-c3ccccc3)c12 [Compound 212, N-(2-methoxyethyl)-5-phenyl-2-(pyridin-2-yl)thieno[2,3-d]pyrimidin-4-amine]
5.7	OCCOCCNc1nc(-c2ccccn2)nc2scc(-c3ccccc3)c12 [Compound 213, 2-(2-{[5-phenyl-2-(pyridin-2-yl)thieno[2,3-d]pyrimidin-4-yl]amino}ethoxy)ethan-1-ol]
6.8	CC(Nc1nc(-c2ccccn2)nc2scc(-c3ccccc3)c12)C(=O)NC(C)(C)C (stereo not drawn) [Compound 215, N-tert-butyl-2-{[5-phenyl-2-(pyridin-2-yl)thieno[2,3-d]pyrimidin-4-yl]amino}propanamide]
5.3	CNC(=O)CNc1nc(-c2ccccn2)nc2scc(-c3ccccc3)c12 [Compound 217, N-methyl-2-{[5-phenyl-2-(pyridin-2-yl)thieno[2,3-d]pyrimidin-4-yl]amino}acetamide]
5.5	O=C(CNc1nc(-c2ccccn2)nc2scc(-c3ccccc3)c12)NC1CC1 [Compound 218, N-cyclopropyl-2-{[5-phenyl-2-(pyridin-2-yl)thieno[2,3-d]pyrimidin-4-yl]amino}acetamide]
6	CCCNC(=O)CNc1nc(-c2ccccn2)nc2scc(-c3ccccc3)c12 [Compound 219, 2-{[5-phenyl-2-(pyridin-2-yl)thieno[2,3-d]pyrimidin-4-yl]amino}-N-propylacetamide]
6	NC(=O)NCCCCNc1nc(-c2ccccn2)nc2scc(-c3ccccc3)c12 [Compound 220, (4-{[5-phenyl-2-(pyridin-2-yl)thieno[2,3-d]pyrimidin-4-yl]amino}butyl)urea]
5.3	OCCNc1nc(-c2ccccn2)nc2scc(-c3ccccc3)c12 [Compound 225, 2-{[5-phenyl-2-(pyridin-2-yl)thieno[2,3-d]pyrimidin-4-yl]amino}ethan-1-ol]
5.8	CS(=O)(=O)CCNc1nc(-c2ccccn2)nc2scc(-c3ccccc3)c12 [Compound 226, N-(2-methanesulfonylethyl)-5-phenyl-2-(pyridin-2-yl)thieno[2,3-d]pyrimidin-4-amine]
